Reference: patent US6268381A, “Taxane derivatives” (Kabushiki Kaisha Yakult Honsha, priority 1997, dated 2001)
Converted amounts (≈) assume the structure as drawn.

What was measured:
[1] = tested on: KB cells; experiment: Growth inhibitory activity against KB cells (Test 2, XTT assay); type: cell-based, human; conditions: for GI50: Homo sapiens, 72 h, 3 days culture; for Activity ratio: relative to Taxol (1.00)
Protocol: Growth Inhibitory Activity of Taxane Derivatives (1)
As KB cells derived from a human mouth cancer, those purchased from Dainippon Pharmaceutical Co., Ltd. and stored in a lyophilized from at the Research Institute of that company was used. In Dulbecco's modified Eargle's medium containing 10% fetal bovine serum (product of NISSUI PHARMACEUTICAL CO., LTD.), the KB cells were cultured and maintained under the conditions of 5%, CO2 -ari and 37° C.
Each compound was used by dissolving it in DMSO at a concentration of 10 mg/mL.
On Day-1, cells which were in a logarithmic growth phase were inoculated at 2,000 cells/100 μl/well on 96-well microtiter plates (Falcon #3072) by using a phenol-red-free culture medium with 10% fetal bovine serum contained therein (Dulbecco's modified Eargle's medium (Sigma)), and were cultured overnight. On Day 0, the compounds each of which had been diluted to 0.03 to 10,000 ng/mL with the same culture medium were added in 100 μl aliquots to the individual wells, and the cells were cultured for 3 days. Three wells were used per each drug concentration. Each plate was provided with three blank wells containing only the culture medium and also with eight wells as a drug-untreated control.
Upon use, XTT (Sigma) was dissolved at a concentration of 1 mg/mL in each culture medium which was free of serum. Phenodin methosulfate (Sigma) dissolved at a concentration of 5 mM in PBS was added to the resulting solution at a volume ratio of 1/200. To each well, the solution so prepared was added in an amount of 50 μl per well. Subsequent to culture for 4 hours, OD was measured at 450 nm by ELISA.
Calculation of 50% Growth Inhibitory Concentration (GI50)
GI50 was calculated by interpolation from a concentration-growth inhibition rate (GIR) curve. GIR was determined in accordance with the following formula: [formula]

[2] = Solubility test of water-soluble taxane derivatives (Test 1, HPLC); type: physicochemical; conditions: purified water + 1.05 eq. 0.1N hydrochloric acid, shaken 2 hours at room temperature
Protocol: Solubilities of Novel Water-soluble Taxane Derivatives
I) Preparation of a calibration curve
Compound (1-4) was weighed in an amount of 2.3 mg, to which 2.3 mL of acetonitrile was added so that the compound was dissolved to provide a standard solution. Using a 10 μL portion of the standard solution, the test was conducted by HPLC (operation conditions 1). The peak area of Compound (1-4), which had been obtained from the chromatogram of the standard solution, was measured by automated integration. The peak area obtained as an average of three measurements was plotted against the amount (10 μg) of Compound (1-4) per 10 μL, whereby a calibration curve was prepared.
Calibration curve of Compound (1-4): Y =1.518 ×10^-5 X [X: peak area, Y: amount (μg) of Compound (1-4)] [HPLC operation conditions 1] Column: Inertsil ODS-2 (5-250), 40 deg. Mobile phase: 0.01M KH2 PO4 --CH3 CN (3:2). Flow rate: 1.0 mL/min. Detection: Ultraviolet absorption photometer (225 nm), 0.2 AUFS.
II) Solubility test of Compound (1-4):
Compound (1-4) was weighed in an amount of 3.7 mg and then suspended in 2.0 mL of purified water. To the resulting suspension, 41.3 μL (1.05 eq.) of 0.1N hydrochloric acid was added. […] From the area obtained as an average of three measurements, the solubility of the compound (1-4) was determined. […]

[3] = tested on: breast cancer; conditions: Ann. int. Med. 111, 273, 1989; cited from earlier work
[4] = tested on: ovarian cancer; conditions: Ann. int. Med. 111, 273, 1989; cited from earlier work

Row | SMILES | GI50 [1] | Activity ratio [1] | Amount dissolved ([2]; average of three measurements) | solubility at 2 h ([2]; water + 0.1n hcl) | Efficacy against breast cancer [3] | Efficacy against ovarian cancer [4]
1 | CC(=O)O[C@@]12CO[C@@H]1C[C@H](O)[C@@]1(C)C(=O)[C@H](OC(=O)N3CCC(N4CCCCC4)CC3)C3=C(C)[C@@H](OC(=O)[C@H](O)[C@@H](NC(=O)OC(C)(C)C)c4ccoc4)C[C@@](O)([C@@H](OC(=O)c4ccccc4)[C@H]21)C3(C)C [Compound 1-1, 13-0-[3-(tert-Butoxycarbonylamino)-3-(3-furyl)-2-hydroxypropionyl]-10-0-(4-piperidinopiperidinocarbonyl)-10-deacetylbaccatin III] | 0.48 ng/mL (≈ 0.484 nM) | 2.70 |  |  |  | 
2 | CC(=O)O[C@@]12CO[C@@H]1C[C@H](O)[C@@]1(C)C(=O)[C@H](OC(=O)N3CCN(C)CC3)C3=C(C)[C@@H](OC(=O)[C@H](O)[C@@H](NC(=O)OC(C)(C)C)c4ccoc4)C[C@@](O)([C@@H](OC(=O)c4ccccc4)[C@H]21)C3(C)C [Compound 1-2] | 0.28 ng/mL (≈ 0.303 nM) | 4.64 |  |  |  | 
3 | CCCN(CCC)C1CCN(C(=O)O[C@H]2C(=O)[C@@]3(C)[C@H]([C@H](OC(=O)c4ccccc4)[C@]4(O)C[C@H](OC(=O)[C@H](O)[C@@H](NC(=O)OC(C)(C)C)c5ccco5)C(C)=C2C4(C)C)[C@]2(OC(C)=O)CO[C@@H]2C[C@@H]3O)CC1 [Compound 1-3, 13-0-[3-(tert-Butoxycarbonylamino)-3-(2-furyl)-2-hydroxypropionyl]-10-0-(4-dipropylaminopiperidinocarbonyl)-10-deacetylbaccatin III] | 0.43 ng/mL (≈ 0.427 nM) | 3.02 |  |  |  | 
4 | CCN1CCN(C(=O)O[C@H]2C(=O)[C@@]3(C)[C@H]([C@H](OC(=O)c4ccccc4)[C@]4(O)C[C@H](OC(=O)[C@H](O)[C@@H](NC(=O)OC(C)(C)C)c5ccco5)C(C)=C2C4(C)C)[C@]2(OC(C)=O)CO[C@@H]2C[C@@H]3O)CC1 [Compound 1-4, 13-0-[3-(tert-Butoxycarbonylamino)-3-(2-furyl)-2-hydroxypropionyl]-10-0-(4-ethylpipezinocarbonyl)-10-deacetylbaccatin III] | 0.23 ng/mL (≈ 0.245 nM) | 5.65 | 7.87 μg/5 μL | 1570 µg/mL |  | 
5 | CC(=O)O[C@H]1C(=O)[C@@]2(C)[C@H]([C@H](OC(=O)c3ccccc3)[C@]3(O)C[C@H](OC(=O)[C@H](O)[C@@H](NC(=O)c4ccccc4)c4ccccc4)C(C)=C1C3(C)C)[C@]1(OC(C)=O)CO[C@@H]1C[C@@H]2O [Taxol] | 1.3 ng/mL (≈ 1.52 nM) |  |  |  | high efficacy | high efficacy
